Earlier results, collected in patent US20050281872A1, “Enhanced compliance antiviral medicaments and methods of manufacture and use” (priority 2004, published 2005).

Assays:
[1] = patients receiving ribavirin antiviral therapy
[2] = taking antacids containing magnesium, aluminum, and simethicone
[3] = ribavirin powder

In the case of `NC(=O)c1ncn([C@@H]2O[C@H](CO)[C@@H](O)[C@H]2O)n1` [ribavirin], the “patients requiring a reduction in dose or discontinuation of therapy because of side effects” value [1] is given as “up to 20%”, the solubility in alcohol (alcohol) is given as “only sparingly soluble” and the solubility in water (water) is given as “freely soluble”. For the same compound, the “decrease in available ribavirin” value [2] was 14%, the “effectiveness in treating hepatitis C” value (hepatitis C virus (HCV); ribavirin alone, without interferon) was “not effective” and the “dissolution time in water” value [3] was “almost instantaneous”.

In the case of interferon, the “patients who responded positively” value (hepatitis C virus (HCV); high dose of interferon for six months) is listed as “nearly half”.
